Measurements published in patent US8623883B2, “4-phenylamino-quinazolin-6-yl-amides” (Warner-Lambert Company LLC, priority 2004, dated 2014).
Values after ≈ are worked out from the molar mass of the structure shown.

Columns and labels:
ErbB1 = ErbB1 (Homo sapiens (Human), UniProt P00533); assay: ELISA-based erbB kinase assay (ErbB1); assay type: biochemical; details: GST-erbB1 cytoplasmic fusion protein, 20 uM ATP, poly-Glu-Tyr substrate
Description: (§1) ErbB1, erbB2 and erbB4 cytoplasmic fusion proteins were made by cloning the erbB1 sequence (Met-668 to Ala1211), erbB2 (Ile-675 to Val-1256) and erbB4 sequence (Gly-259 to Gly-690) into the baculoviral vector pFastBac using Polymerase Chain Reaction (PCR). Proteins were expressed in Baculovirus-infected Sf9 insect cells as Glutathione S-Transferase (GST) fusion proteins. The proteins were purified by affinity chromatography using glutathione sepharose beads.
(§2) Inhibition of erbB tyrosine kinase activity was assessed using an ELISA-based receptor tyrosine kinase assay. Kinase reactions (50 mM HEPES, pH 7.4, 125 mM NaCl, 10 mM MgCl2, 100 μM sodium orthovanadate, 2 mM dithiothreitol, 20 uM ATP, test compound or vehicle control and 1-5 nM GST-erbB per 50 uL reaction) were run in 96-well plates coated with 0.25 mg/ml poly-Glu-Tyr (Sigma). The reactions were incubated for 6 minutes at room temperature while shaking. Kinase reactions were stopped by removal of reaction mixture, then wells were washed with wash buffer comprising 3% Bovine Serum Albumin and 0.1% Tween 20 in Phosphate Buffered Saline (PBS). Phosphorylated tyrosine residues were detected by adding 0.2 μg/ml anti-phosphotyrosine antibody (Oncogene Ab-4; 50 μL/well) coupled to Horse Radish Peroxidase (HRP) for 25 minutes while shaking at room temperature. The antibody was removed, and plates were washed (3% BSA and 0.1% Tween 20 in PBS). HRP substrate 3,3′,5,5′-tetramethylbenzidene (SureBlueTMB, Kirkegaard & Perry Labs) was added (50 μL per well) and incubated for 10-20 minutes while shaking at room temperature. The TMB reaction was stopped with the addition of 50 μL stop solution (0.09 N H2SO4). The signal was quantified by measuring absorbance at 450 nm. IC50 values were determined for test compounds using Microsoft Excel.

ErbB4 = ErbB4 (Homo sapiens, UniProt Q15303); assay: ELISA-based erbB kinase assay (ErbB4); assay type: biochemical; details: GST-erbB4 cytoplasmic fusion protein, 20 uM ATP, poly-Glu-Tyr substrate
Description: as §1, §2

Aqueous solubility = assay type: physicochemical
ErbB2 = ErbB2 (Homo sapiens (Human), UniProt P04626); assay: ELISA-based erbB kinase assay (ErbB2); assay type: biochemical; details: GST-erbB2 cytoplasmic fusion protein, 20 uM ATP, poly-Glu-Tyr substrate
Description: as §1, §2

ErbB1, sequence (P00533 668-1210 limits assumed): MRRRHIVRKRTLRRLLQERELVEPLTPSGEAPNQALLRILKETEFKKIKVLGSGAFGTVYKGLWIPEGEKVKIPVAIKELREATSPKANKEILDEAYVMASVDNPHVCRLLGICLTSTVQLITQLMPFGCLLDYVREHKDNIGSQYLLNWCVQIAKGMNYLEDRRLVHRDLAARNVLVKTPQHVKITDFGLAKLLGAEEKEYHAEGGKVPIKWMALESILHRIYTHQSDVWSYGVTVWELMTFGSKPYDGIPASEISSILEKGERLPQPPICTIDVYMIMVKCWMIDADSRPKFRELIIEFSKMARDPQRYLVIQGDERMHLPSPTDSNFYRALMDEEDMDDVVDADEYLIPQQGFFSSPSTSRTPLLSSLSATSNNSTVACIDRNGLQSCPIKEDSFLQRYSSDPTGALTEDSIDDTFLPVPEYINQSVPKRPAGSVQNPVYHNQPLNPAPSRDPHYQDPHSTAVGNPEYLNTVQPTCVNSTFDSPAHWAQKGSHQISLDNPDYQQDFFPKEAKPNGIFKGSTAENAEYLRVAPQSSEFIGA
ErbB2, sequence (P04626 675-1255 limits assumed): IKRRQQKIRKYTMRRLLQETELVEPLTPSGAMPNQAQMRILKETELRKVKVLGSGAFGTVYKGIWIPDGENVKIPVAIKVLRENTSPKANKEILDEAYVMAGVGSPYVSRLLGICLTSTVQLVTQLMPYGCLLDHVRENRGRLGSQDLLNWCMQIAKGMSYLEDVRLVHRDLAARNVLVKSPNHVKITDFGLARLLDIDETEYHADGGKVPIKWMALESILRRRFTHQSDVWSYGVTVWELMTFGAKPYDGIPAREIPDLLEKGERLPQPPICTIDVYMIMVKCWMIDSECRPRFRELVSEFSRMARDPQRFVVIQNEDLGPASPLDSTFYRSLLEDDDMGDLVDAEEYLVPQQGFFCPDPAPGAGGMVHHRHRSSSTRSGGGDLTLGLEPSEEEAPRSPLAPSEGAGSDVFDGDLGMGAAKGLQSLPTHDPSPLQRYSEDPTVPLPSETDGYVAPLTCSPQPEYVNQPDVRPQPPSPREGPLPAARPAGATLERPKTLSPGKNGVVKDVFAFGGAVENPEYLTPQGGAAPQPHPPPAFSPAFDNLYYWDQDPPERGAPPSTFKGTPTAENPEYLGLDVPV
ErbB4, sequence (Q15303 26-1308 limits assumed): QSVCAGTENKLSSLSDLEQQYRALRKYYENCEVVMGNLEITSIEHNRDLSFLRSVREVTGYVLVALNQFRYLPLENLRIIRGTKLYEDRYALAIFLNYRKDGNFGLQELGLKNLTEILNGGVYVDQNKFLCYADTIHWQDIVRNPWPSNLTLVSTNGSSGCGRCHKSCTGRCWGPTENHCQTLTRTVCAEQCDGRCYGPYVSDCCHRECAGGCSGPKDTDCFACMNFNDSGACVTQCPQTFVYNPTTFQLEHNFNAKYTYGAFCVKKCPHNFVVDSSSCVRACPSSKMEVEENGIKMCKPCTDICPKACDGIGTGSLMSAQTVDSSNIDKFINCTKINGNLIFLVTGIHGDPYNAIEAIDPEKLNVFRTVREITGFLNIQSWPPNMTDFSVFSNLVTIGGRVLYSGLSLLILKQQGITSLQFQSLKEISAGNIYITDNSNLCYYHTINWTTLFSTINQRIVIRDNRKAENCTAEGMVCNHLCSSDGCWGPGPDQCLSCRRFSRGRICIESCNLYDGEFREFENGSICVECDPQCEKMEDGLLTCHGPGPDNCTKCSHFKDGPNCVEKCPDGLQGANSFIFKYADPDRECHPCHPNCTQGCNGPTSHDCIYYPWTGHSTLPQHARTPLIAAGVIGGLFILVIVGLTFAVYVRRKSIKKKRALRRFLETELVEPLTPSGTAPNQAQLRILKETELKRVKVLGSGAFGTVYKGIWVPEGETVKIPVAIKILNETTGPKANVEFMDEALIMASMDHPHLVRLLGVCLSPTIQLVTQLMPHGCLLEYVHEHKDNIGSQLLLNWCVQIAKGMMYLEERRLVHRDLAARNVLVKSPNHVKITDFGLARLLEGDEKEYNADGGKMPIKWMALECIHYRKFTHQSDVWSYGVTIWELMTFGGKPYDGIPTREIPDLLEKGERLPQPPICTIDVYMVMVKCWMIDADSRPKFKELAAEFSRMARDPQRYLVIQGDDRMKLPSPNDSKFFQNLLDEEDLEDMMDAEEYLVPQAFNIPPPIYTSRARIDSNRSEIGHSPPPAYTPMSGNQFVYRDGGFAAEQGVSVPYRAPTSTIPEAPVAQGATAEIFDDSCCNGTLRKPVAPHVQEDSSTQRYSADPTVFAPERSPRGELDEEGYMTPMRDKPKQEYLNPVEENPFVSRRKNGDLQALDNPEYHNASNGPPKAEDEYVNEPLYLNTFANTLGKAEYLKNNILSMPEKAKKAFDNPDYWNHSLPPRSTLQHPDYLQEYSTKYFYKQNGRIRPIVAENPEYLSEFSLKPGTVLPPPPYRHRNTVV

Structure (SMILES)	IC50 (ErbB1) [nM]	IC50 (ErbB4) [nM]	solubility (Aqueous solubility; aqueous medium, pH 6.3, aqueous buffer) [µg/mL]	change of aqueous solubility with pH (Aqueous solubility; at lower pHs (than 6.3))	IC50 (ErbB2) [nM]
O=C(/C=C/CN1CCCCC1)Nc1cc2c(Nc3ccc(F)c(Cl)c3)ncnc2cc1OCCF [Example No. 1, 4-Piperidin-1-yl-but-2-enoic acid [4-(3-chloro-4-fluoro-phenylamino)-7-(2-fluoro-ethoxy)-quinazolin-6-yl]-amide]	6.44	77.5	–	–	–
COc1cc2ncnc(Nc3ccc(F)c(Cl)c3)c2cc1NC(=O)/C=C/CN1CCCCC1 [Example No. 2, 4-Piperidin-1-yl-but-2-enoic acid [4-(3-chloro-4-fluoro-phenylamino)-7-methoxy-quinazolin-6-yl]-amide]	–	–	~10 (≈ 21.3 µM)	increases	–
O=C(/C=C/CN1CCCCC1)Nc1cc2c(Nc3ccc(F)c(Cl)c3)ncnc2cc1OCC(F)F [Example No. 6, 4-Piperidine-1-yl-but-2-enoic acid [4-(3-chloro-4-fluoro-phenylamino)-7-(2,2-difluoro-ethoxy)-quinazolin-6-yl]-amide]	9.87	154	–	–	244
O=C(/C=C/CN1CCCCC1)Nc1cc2c(Nc3ccc(F)c(Cl)c3)ncnc2cc1OCCCN1CCOCC1 [Example No. 7, 4-Piperidin-1-yl-but-2-enoic acid [4-(3-chloro-4-fluoro-phenylamino)-7-(3-morpholin-4-yl-propoxy)-quinazolin-6-yl]-amide]	11.3	61.5	–	–	–
COc1cc2ncnc(Nc3ccc(F)c(Cl)c3)c2cc1NC(=O)/C=C/CN1CCCC(F)C1 (centres unmarked) [Example No. 8, 4-(3-Fluoro-piperidin-1-yl)-but-2-enoic acid [4-(3-chloro-4-fluoro-phenylamino)-7-methoxy-Quinazolin-6-yl]-amide]	45.3	234	–	–	212
COc1cc2ncnc(Nc3ccc(F)c(Cl)c3)c2cc1NC(=O)/C=C/CN1CCC(F)CC1 [Example No. 9, 4-(4-Fluoro-piperidin-1-yl)-but-2-enoic acid [4-(3-chloro-4-fluoro-phenylamino)-7-methoxy-quinazolin-6-yl]-amide]	–	147	–	–	247
COc1cc2ncnc(Nc3ccc(F)c(Cl)c3)c2cc1NC(=O)/C=C/CN1CCCCCC1 [Example No. 10, 4-Azepan-1-yl-but-2-enoic acid [4-(3-chloro-4-fluoro-phenylamino)-7-methoxy-quinazolin-6-yl]-amide]	12.1	41.3	–	–	86
